Laboratory results reported in US20220296599A1, “Pharmaceutical composition comprising histone deacetylase inhibitor and methotrexate” (Chong Kun Dang Pharmaceutical Corp., priority 2018, published 2022).

Assays:
[1] = tested on: adjuvant-induced arthritis (AIA) model; experiment: Clinical score analysis in adjuvant-induced arthritis (AIA) model; format: in vivo, Lewis rats; design: Clinical score 9th day / Clinical score 13th day / Clinical score 16th day / Clinical score 11th day / Clinical score 15th day / Clinical score 18th day: scale not given here; details: for Clinical score 11th day / Clinical score 15th day / Clinical score 18th day: Mean ± SEM; for Clinical score 9th day / Clinical score 13th day / Clinical score 16th day: Mean ± SD
Description: (§1) Lewis rats (female, five-weeks old) were purchased from Central Lab Animal, Inc. and kept in a controlled environment with a temperature at 22±2° C., a humidity at 44-56% and a light/dark cycle of 12 hours, while being allowed to have a free access to standard diet and water for one week before an examination. Complete Freund's Adjuvant (Chondrex) containing 10 mg/mL of heat killed mycobacteria toxin was fully mixed together, after which […] thereof was taken and subcutaneously injected into each upper tail of the rats to induce arthritis therefrom.
(§2) To administer a drug of compound 374 (SM374) and evaluate an effect thereof, the rats were divided into 11 groups (9, 10 or 11 animals per group) one day before or nine days after inducing arthritis, after which each group was classified according to administered substances (vehicle, compound 374 (SM374) or methotrexate (MTX)) and administration routes (oral administration (P.O.) or intraperitoneal administration (I.P.)) as shown in a following table 13.
(§3) Also, in order to administer a drug of compounds 374, 413, 484, 530 and 652 (SM374, SM413, SM484, SM530 and SM652) and evaluate an effect thereof, the rats were divided into 13 groups (9 or 10 animals per group) eight days after inducing arthritis, and each group was classified according to administered substances (vehicle, SM374, SM413, SM484, SM530, SM652 and MTX) and administration routes (oral or intraperitoneal administration) as shown in a following table 14.
To identify the efficacy of the inventive composition on preventing or treating arthritis in an AIA model, an analysis was made on the clinical scores of rats dosed with a compound 374 (SM 374, once per day) or MTX (once per week or twice per week) from 9th day to 16th day after inducing arthritis.
Particularly, a degree of swelling, erythema, etc., in each joint of the rats were observed, after which clinical scores were calculated according to a scoring system described in a following table 15, such that the clinical scores on four joints were added up to obtain total scores for each rat (Vishwakarma et al., 2013).
To identify the efficacy of the inventive composition on preventing or treating arthritis in an AIA model, an analysis was made on the clinical scores of rats dosed with compounds 374, 413, 484, 530 and 652 (SM374, SM413, SM484, SM530 and SM652, once per day) or MIX (once per week) from 8th day to 18th day after inducing arthritis.

[2] = Analysis of body weights in AIA model; format: in vivo, Lewis rats; details: for Body weight (g) 8th day / Body weight (g) 11th day / Body weight (g) 15th day / Body weight (g) 18th day: Table 19 study; for Body weight (g) 9th day / Body weight (g) 13th day / Body weight (g) 16th day: Mean ± SD
Description: as §1, §2, §3
An analysis was made on the body weight of rats dosed with compound 374 (SM 374, once per day) or MIX (once per week or twice per week) from 9th day to 16th day after inducing AIA. […]

anti-CCP IgG = experiment: Analysis of anti-CCP IgG in plasma in AIA model (QUANTA Lite CCP3 IgG ELISA); format: in vivo, Lewis rats; details: Mean ± SD
Description: as §1, §2
An effect of compound 374 (SM374) and MTX on preventing or treating arthritis according to administration thereof in combination was evaluated based on analysis of anti-CCP IgG, known as a diagnosis marker for rheumatoid arthritis.
Particularly, blood was collected from each jugular vein of rats dosed with compound 374 (SM374, once per day) and MTX (once or twice per week) from 9th day to 16th day after inducing AIA, after which plasma was isolated therefrom, such that anti-CCP IgG was measured with QUANTA Lite®CCP3 (cyclic citrullinated peptide 3) IgG ELISA kit (INOVA Diagnostics Inc., U.S., catalog no. 704535) according to a protocol offered by a manufacturer thereof, wherein the results thereof are shown in FIG. 5 and Table 20.

[3] = Pharmacokinetic analysis, plasma concentration by LC/MS; format: in vivo; details: rats, MTX 1 mg/kg only
Description: A bioequivalence was evaluated through a pharmacokinetic test on administration of the inventive compound 374 (SM374) and MTX in combination as well as administration of MTX only.
Particularly, after administration of compound 374 (SM374) and MTX, plasma was isolated from blood collected from rats for each time slot, after which organic solvent was added into such plasma to carry out deproteinization and extraction, such that a resulting sample was subjected to quantitative analysis by means of liquid chromatography and mass spectrometer (LC/MS) along with a calibration sample treated under the same conditions, to measure a concentration of compound 374 (SM374) and MTX (FIG. 6 and Table 21) in plasma of the rats as well as each PK parameter (Table 22).

[4] = Table 17 study, compound 10 mg/kg once per day P.O., 18th day vs vehicle
[5] = Table 17 study, compound 10 mg/kg once per day P.O.
[6] = compound 10 mg/kg once per day P.O.
[7] = MTX 3 mg/kg twice per week I.P.
[8] = Table 17 study, MTX 1 mg/kg once per week I.P.
[9] = Table 17 study, MTX 3 mg/kg once per week I.P.
[10] = SM374 0.1 mg/kg once per day P.O.
[11] = SM374 0.5 mg/kg once per day P.O.
[12] = SM374 1 mg/kg once per day P.O.
[13] = SM374 10 mg/kg once per day P.O.

## O=C(NO)c1ccc(CN(C(=O)N2CCOCC2)c2cccc(F)c2)cc1 [SM530]
[1]; [4]
  Rate of reduction in clinical scores (%): 31.1%
[1]; [5]
  Clinical score 11th day: 0.0 ± 0.0
  Clinical score 15th day: 1.2 ± 0.5
  Clinical score 18th day: 4.2 ± 1.6
[2]; [6]
  Body weight (g) 8th day: 151.2 ± 2.6 g
  Body weight (g) 11th day: 153.0 ± 2.1 g
  Body weight (g) 15th day: 161.1 ± 2.1 g
  Body weight (g) 18th day: 159.2 ± 4.5 g

## CN(Cc1cnc2nc(N)nc(N)c2n1)c1ccc(C(=O)N[C@@H](CCC(=O)O)C(=O)O)cc1 [MTX, Methotrexate]
[1]; MTX 1 mg/kg once per week I.P., 16th day vs vehicle
  Rate of reduction in clinical scores (%): 14.5%
[1]; MTX 1 mg/kg once per week I.P.
  Clinical score 9th day: 0.0 ± 0.0
  Clinical score 13th day: 2.2 ± 1.2
  Clinical score 16th day: 5.9 ± 2.8
[1]; MTX 3 mg/kg twice per week I.P., 16th day vs vehicle
  Rate of reduction in clinical scores (%): 65.2%
[1]; [7]
  Clinical score 9th day: 0.0 ± 0.0
  Clinical score 13th day: 1.1 ± 1.6
  Clinical score 16th day: 2.4 ± 3.0
[1]; Table 17 study, MTX 1 mg/kg once per week I.P., 18th day vs vehicle
  Rate of reduction in clinical scores (%): 23.0%
[1]; [8]
  Clinical score 11th day: 0.0 ± 0.0
  Clinical score 15th day: 1.3 ± 0.9
  Clinical score 18th day: 4.7 ± 1.9
[1]; Table 17 study, MTX 3 mg/kg once per week I.P., 18th day vs vehicle
  Rate of reduction in clinical scores (%): 96.7%
[1]; [9]
  Clinical score 11th day: 0.0 ± 0.0
  Clinical score 15th day: 0.0 ± 0.0
  Clinical score 18th day: 0.2 ± 0.2 #
[2]; MTX 1 mg/kg once per week I.P.
  Body weight (g) 9th day: 157.3 ± 11.9 g
  Body weight (g) 13th day: 160.6 ± 4.2 g
  Body weight (g) 16th day: 153.8 ± 7.9 g
  Body weight (g) 8th day: 151.2 ± 2.4 g
  Body weight (g) 11th day: 152.1 ± 2.3 g
  Body weight (g) 15th day: 156.9 ± 2.8 g
  Body weight (g) 18th day: 155.0 ± 3.9 g
[2]; [7]
  Body weight (g) 9th day: 157.2 ± 7.3 g
  Body weight (g) 13th day: 159.6 ± 5.7 g
  Body weight (g) 16th day: 157.6 ± 5.7 g
[2]; MTX 3 mg/kg once per week I.P.
  Body weight (g) 8th day: 151.2 ± 2.4 g
  Body weight (g) 11th day: 151.6 ± 3.8 g
  Body weight (g) 15th day: 160.0 ± 2.9 g
  Body weight (g) 18th day: 164.7 ± 2.5 g
anti-CCP IgG; MTX 1 mg/kg
  Anti-CCP IgG (RU): 208.0 ± 24.3 RU
anti-CCP IgG; MTX 3 mg/kg
  Anti-CCP IgG (RU): 104.6 ± 56.7 RU
[3]; rat, plasma
  AUC(0-inf): 1510 ± 231 ng·h/mL
  Cmax: 1300 ± 97.3 ng/mL
  Tmax: 30 min
  half-life: 54 min
[3]; rat, plasma, read-out: AUC0→8h
  AUC(0-t): 1500 ± 231 ng·h/mL
[3]; rat, plasma, time 0.5 hr
  concentration at 0.5 hr: 1300 ± 97.3 ng/mL
[3]; rat, plasma, time 1 hr
  concentration at 1 hr: 747 ± 129 ng/mL
[3]; rat, plasma, time 2 hr
  concentration at 2 hr: 245 ± 108 ng/mL
[3]; rat, plasma, time 4 hr
  concentration at 4 hr: 24.4 ± 9.7 ng/mL
[3]; rat, plasma, time 8 hr
  concentration at 8 hr: 3 ± 0.3 ng/mL
[3]; time 0 hr
  Plasma concentration (ng/mL): BLOQ

## O=C(NO)c1ccc(CN(C(=O)N2CCOCC2)c2cccc(C(F)(F)F)c2)cc1 [SM374, N-(4-(hydroxycarbamoyl)benzyl)-N-(3-(trifluoromethyl)phenyl)morpholine-4-carboxamide]
[1]; SM374 0.1 mg/kg once per day P.O., 16th day vs vehicle
  Rate of reduction in clinical scores (%): 0%
[1]; [10]
  Clinical score 9th day: 0.0 ± 0.0
  Clinical score 13th day: 4.3 ± 2.9
  Clinical score 16th day: 6.9 ± 3.0
[1]; SM374 0.5 mg/kg once per day P.O., 16th day vs vehicle
  Rate of reduction in clinical scores (%): 2.9%
[1]; [11]
  Clinical score 9th day: 0.0 ± 0.0
  Clinical score 13th day: 2.6 ± 2.3
  Clinical score 16th day: 6.7 ± 4.2
[1]; SM374 1 mg/kg once per day P.O., 16th day vs vehicle
  Rate of reduction in clinical scores (%): 14.5%
[1]; [12]
  Clinical score 9th day: 0.0 ± 0.0
  Clinical score 13th day: 2.7 ± 3.0
  Clinical score 16th day: 5.9 ± 4.4
[1]; SM374 10 mg/kg once per day P.O., 16th day vs vehicle
  Rate of reduction in clinical scores (%): −2.9%
[1]; [13]
  Clinical score 9th day: 0.0 ± 0.0
  Clinical score 13th day: 2.9 ± 2.9
  Clinical score 16th day: 7.1 ± 3.1
[1]; [4]
  Rate of reduction in clinical scores (%): 21.3%
[1]; [5]
  Clinical score 11th day: 0.0 ± 0.0
  Clinical score 15th day: 1.6 ± 0.7
  Clinical score 18th day: 4.8 ± 1.4
[2]; [10]
  Body weight (g) 9th day: 157.3 ± 10.1 g
  Body weight (g) 13th day: 151.3 ± 13.3 g
  Body weight (g) 16th day: 144.2 ± 10.5 g
[2]; [11]
  Body weight (g) 9th day: 157.3 ± 10.0 g
  Body weight (g) 13th day: 153.1 ± 10.8 g
  Body weight (g) 16th day: 148.6 ± 9.5 g
[2]; [12]
  Body weight (g) 9th day: 157.3 ± 10.7 g
  Body weight (g) 13th day: 156.9 ± 8.9 g
  Body weight (g) 16th day: 151.6 ± 11.5 g
[2]; [13]
  Body weight (g) 9th day: 157.3 ± 9.9 g
  Body weight (g) 13th day: 151.6 ± 12.2 g
  Body weight (g) 16th day: 147.6 ± 9.3 g
[2]; [6]
  Body weight (g) 8th day: 151.3 ± 2.1 g
  Body weight (g) 11th day: 153.9 ± 1.5 g
  Body weight (g) 15th day: 159.2 ± 1.5 g
  Body weight (g) 18th day: 157.6 ± 3.1 g
anti-CCP IgG; SM374 0.5 mg/kg once per day
  Anti-CCP IgG (RU): 216.2 ± 30.0 RU
anti-CCP IgG; SM374 1 mg/kg once per day
  Anti-CCP IgG (RU): 221.8 ± 28.0 RU
anti-CCP IgG; SM374 10 mg/kg once per day
  Anti-CCP IgG (RU): 206.6 ± 32.9 RU
